MIC90 data for 19 molecules are collected here from ChEMBL document CHEMBL1817642, “Stereoselective synthesis and antimicrobial activity of steroidal C-20 tertiary alcohols with thiazole/pyridine side chain” (2011).

Assay type in all cases: functional
One assay deals with Cryptococcus neoformans. The assay is described as follows: Antifungal activity against Cryptococcus neoformans isolate NCL2 after 72 hrs by broth dilution method. As to conditions: isolate NCL2, 72 h.
The test system of another assay is Candida albicans. The assay is described as follows: Antifungal activity against Candida albicans isolate NCL1 after 48 hrs by broth dilution method. The following applies: isolate NCL1, 48 h.
In another assay the test system is Staphylococcus aureus. Nature of the assay: Antibacterial activity against Staphylococcus aureus NCIM 2122 after 24 hrs by NCCLS method. The following applies: NCIM 2122, 24 h.
For the next assay, the system named is Fusarium oxysporum. The assay is described as follows: Antifungal activity against Fusarium oxysporum isolate NCL5 after 48 hrs by broth dilution method. As to conditions: isolate NCL5, 48 h.
The next assay concerns Benjaminiella poitrasii. Nature of the assay: Antifungal activity against Benjaminiella poitrasii isolate NCL3 after 24 hrs by M38-P broth dilution method. As to conditions: isolate NCL3, 24 h.
For a further assay, the system named is Yarrowia lipolytica. The assay is described as follows: Antifungal activity against Yarrowia lipolytica isolate NCL4 after 24 hrs by broth dilution method. The following applies: isolate NCL4, 24 h.
In a further assay the test system is Escherichia coli. The assay is described as follows: Antibacterial activity against Escherichia coli NCIM 2574 after 24 hrs by NCCLS method. As to conditions: NCIM 2574, 24 h.

Converted amounts (≈) assume the structure as drawn.

Take `CC(=O)O[C@H]1CC[C@@]2(C)C(=CC[C@H]3[C@@H]4CC[C@H]([C@@](C)(O)c5nccs5)[C@@]4(C)CC[C@@H]32)C1`: the MIC90 in the assay on Cryptococcus neoformans is 32 µg/mL (≈ 72.1 µM); in the assay on Candida albicans, above 64 µg/mL; in the assay on Staphylococcus aureus, 32 µg/mL (≈ 72.1 µM); in the assay on Fusarium oxysporum, 64 µg/mL (≈ 144 µM); against Benjaminiella poitrasii, 32 µg/mL (≈ 72.1 µM); with Yarrowia lipolytica, above 64 µg/mL. The molecule further gave an MIC90 in the assay on Escherichia coli of 8 µg/mL (≈ 18 µM).
Turning to `CC[C@H]1OC(=O)[C@H](C)[C@@H](O[C@H]2C[C@@](C)(OC)[C@@H](O)[C@H](C)O2)[C@H](C)[C@@H](O[C@@H]2O[C@H](C)C[C@H](N(C)C)[C@H]2O)[C@](C)(O)C[C@@H](C)C(=O)[C@H](C)[C@@H](O)[C@]1(C)O` [ERYTHROMYCIN], the results for the MIC90 in the assay on Staphylococcus aureus and against Escherichia coli were 32 µg/mL (≈ 43.6 µM) and above 64 µg/mL, respectively.
Take `C[C@]12CC[C@H]3[C@@H](CC=C4C[C@@H](O)CC[C@@]43C)[C@@H]1CC[C@@H]2[C@@](C)(O)c1ccccn1`: the MIC90 is 64 µg/mL (≈ 162 µM) against Cryptococcus neoformans; above 64 µg/mL against Candida albicans; 8 µg/mL (≈ 20.2 µM) in the assay with Staphylococcus aureus; 16 µg/mL (≈ 40.4 µM) against Fusarium oxysporum; 32 µg/mL (≈ 80.9 µM) in the assay with Benjaminiella poitrasii; 32 µg/mL (≈ 80.9 µM) against Yarrowia lipolytica. Further, the MIC90 in the assay on Escherichia coli came out at 16 µg/mL (≈ 40.4 µM).
In the case of `CC(=O)[C@H]1[C@H](c2ccccn2)C[C@H]2[C@@H]3CC=C4C[C@@H](O)CC[C@]4(C)[C@H]3CC[C@@]21C`, the MIC90 in the assay with Cryptococcus neoformans was above 64 µg/mL; against Candida albicans, 32 µg/mL (≈ 81.3 µM); against Staphylococcus aureus, 8 µg/mL (≈ 20.3 µM); against Fusarium oxysporum, 64 µg/mL (≈ 163 µM); against Benjaminiella poitrasii, 32 µg/mL (≈ 81.3 µM); in the assay on Yarrowia lipolytica, 16 µg/mL (≈ 40.7 µM). Also, the MIC90 with Escherichia coli was 16 µg/mL (≈ 40.7 µM).
As for `C[C@@H]1[C@H](O)[C@@H](C)/C=C/C=C/C=C/C=C/C=C/C=C/C=C/[C@H](O[C@@H]2O[C@H](C)[C@@H](O)[C@H](N)[C@@H]2O)C[C@@H]2O[C@](O)(C[C@@H](O)C[C@@H](O)[C@H](O)CC[C@@H](O)C[C@@H](O)CC(=O)O[C@H]1C)C[C@H](O)[C@H]2C(=O)O` [AMPHOTERICIN B], the MIC90 in the assay on Cryptococcus neoformans amounted to 16 µg/mL (≈ 17.3 µM); against Candida albicans it was 2 µg/mL (≈ 2.16 µM); against Fusarium oxysporum, 16 µg/mL (≈ 17.3 µM); against Benjaminiella poitrasii it was 16 µg/mL (≈ 17.3 µM); against Yarrowia lipolytica, 16 µg/mL (≈ 17.3 µM).
As to `CC(C)(C)[Si](C)(C)O[C@H]1CC[C@@]2(C)[C@@H](CC[C@@H]3[C@@H]2CC[C@@]2(C)[C@H]3CC[C@@H]2[C@@](C)(O)c2ccccn2)C1`, the MIC90 against Cryptococcus neoformans is 16 µg/mL (≈ 31.3 µM); in the assay on Candida albicans, 32 µg/mL (≈ 62.5 µM); with Staphylococcus aureus, 16 µg/mL (≈ 31.3 µM); against Fusarium oxysporum it was 32 µg/mL (≈ 62.5 µM); against Benjaminiella poitrasii it was 64 µg/mL (≈ 125 µM); in the assay on Yarrowia lipolytica, above 64 µg/mL. The molecule also displayed an MIC90 in the assay on Escherichia coli of 8 µg/mL (≈ 15.6 µM).
For the molecule `CC(=O)O[C@H]1CC[C@@]2(C)[C@@H](CC[C@@H]3[C@@H]2CC[C@@]2(C)[C@H]3CC[C@@H]2[C@@](C)(O)c2nccs2)C1`, the MIC90 against Cryptococcus neoformans was 64 µg/mL (≈ 144 µM); with Candida albicans, 8 µg/mL (≈ 18 µM); against Staphylococcus aureus, 16 µg/mL (≈ 35.9 µM); with Fusarium oxysporum, 16 µg/mL (≈ 35.9 µM); in the assay with Benjaminiella poitrasii, 16 µg/mL (≈ 35.9 µM); against Yarrowia lipolytica it was above 64 µg/mL. This molecule also came in with an MIC90 in the assay with Escherichia coli of 16 µg/mL (≈ 35.9 µM).
Consider `CN(C)[C@@H]1C(O)=C(C(N)=O)C(=O)[C@@]2(O)C(O)=C3C(=O)c4c(O)cccc4[C@@](C)(O)[C@H]3C[C@@H]12` [TETRACYCLINE], for which the figures for the MIC90 against Staphylococcus aureus and in the assay with Escherichia coli were 16 µg/mL (≈ 36 µM) and 8 µg/mL (≈ 18 µM), respectively.
For `C[C@]12CC[C@H]3[C@@H](CC=C4C[C@@H](O)CC[C@@]43C)[C@@H]1CC[C@@H]2[C@@](C)(O)c1nccs1`, the MIC90 in the assay with Cryptococcus neoformans is 32 µg/mL (≈ 79.7 µM); with Candida albicans it was 16 µg/mL (≈ 39.8 µM); with Staphylococcus aureus, 8 µg/mL (≈ 19.9 µM); against Fusarium oxysporum, 64 µg/mL (≈ 159 µM); in the assay with Benjaminiella poitrasii it was 32 µg/mL (≈ 79.7 µM); with Yarrowia lipolytica, 32 µg/mL (≈ 79.7 µM). In addition, the MIC90 with Escherichia coli was 8 µg/mL (≈ 19.9 µM).
Turning to `C[C@]12CC[C@H](O)C[C@@H]1CC[C@@H]1[C@@H]2CC[C@@]2(C)[C@H]1CC[C@@H]2[C@@](C)(O)c1ccccn1`, the MIC90 was 64 µg/mL (≈ 161 µM) in the assay with Cryptococcus neoformans; 32 µg/mL (≈ 80.5 µM) against Candida albicans; 8 µg/mL (≈ 20.1 µM) against Staphylococcus aureus; above 64 µg/mL against Fusarium oxysporum; 64 µg/mL (≈ 161 µM) with Benjaminiella poitrasii; 32 µg/mL (≈ 80.5 µM) in the assay with Yarrowia lipolytica. This molecule yielded an MIC90 with Escherichia coli of 8 µg/mL (≈ 20.1 µM).
Regarding `CC(C)(C)[Si](C)(C)O[C@H]1CC[C@@]2(C)C(=CC[C@H]3[C@@H]4CC[C@H]([C@@](C)(O)c5nccs5)[C@@]4(C)CC[C@@H]32)C1`, the MIC90 was above 64 µg/mL in the assay on Cryptococcus neoformans; 16 µg/mL (≈ 31 µM) against Candida albicans; 16 µg/mL (≈ 31 µM) with Staphylococcus aureus; above 64 µg/mL against Fusarium oxysporum; above 64 µg/mL in the assay with Benjaminiella poitrasii; above 64 µg/mL in the assay on Yarrowia lipolytica. The MIC90 with Escherichia coli amounted to 8 µg/mL (≈ 15.5 µM).
`C[C@]12CC[C@H](O)C[C@@H]1CC[C@@H]1[C@@H]2CC[C@@]2(C)[C@H]1CC[C@@H]2[C@@](C)(O)c1nccs1`: the MIC90 against Cryptococcus neoformans was 32 µg/mL (≈ 79.3 µM); in the assay with Candida albicans it was 64 µg/mL (≈ 159 µM); with Staphylococcus aureus, 32 µg/mL (≈ 79.3 µM); against Fusarium oxysporum, above 64 µg/mL; against Benjaminiella poitrasii, above 64 µg/mL; against Yarrowia lipolytica, above 64 µg/mL. The MIC90 against Escherichia coli came out at 16 µg/mL (≈ 39.6 µM).
As to `CC(=O)[C@H]1[C@H](c2ccccn2)C[C@H]2[C@@H]3CC=C4C[C@@H](OS(C)(C)C(C)(C)C)CC[C@]4(C)[C@H]3CC[C@@]21C`, the MIC90 in the assay with Cryptococcus neoformans is above 64 µg/mL; against Candida albicans, 32 µg/mL (≈ 62.5 µM); against Staphylococcus aureus, 16 µg/mL (≈ 31.3 µM); in the assay with Fusarium oxysporum, 64 µg/mL (≈ 125 µM); in the assay with Benjaminiella poitrasii it was 64 µg/mL (≈ 125 µM); in the assay on Yarrowia lipolytica, 8 µg/mL (≈ 15.6 µM). Besides, the MIC90 with Escherichia coli is 16 µg/mL (≈ 31.3 µM).
Take `CC(=O)O[C@H]1CC[C@@]2(C)C(=CC[C@H]3[C@@H]4C[C@@H](c5ccccn5)[C@H](C(C)=O)[C@@]4(C)CC[C@@H]32)C1`: the MIC90 against Cryptococcus neoformans is 32 µg/mL (≈ 73.5 µM); against Candida albicans, above 64 µg/mL; with Staphylococcus aureus, 16 µg/mL (≈ 36.7 µM); with Fusarium oxysporum, 32 µg/mL (≈ 73.5 µM); with Benjaminiella poitrasii it was 64 µg/mL (≈ 147 µM); against Yarrowia lipolytica, above 64 µg/mL. In the assay with Escherichia coli, this molecule came in with an MIC90 of 16 µg/mL (≈ 36.7 µM).
For the molecule `CC(=O)O[C@H]1CC[C@@]2(C)C(=CC[C@H]3[C@@H]4CC[C@H]([C@@](C)(O)c5ccccn5)[C@@]4(C)CC[C@@H]32)C1`, the MIC90 in the assay with Cryptococcus neoformans was above 64 µg/mL; with Candida albicans, above 64 µg/mL; against Staphylococcus aureus, 32 µg/mL (≈ 73.1 µM); with Fusarium oxysporum, 64 µg/mL (≈ 146 µM); against Benjaminiella poitrasii, 32 µg/mL (≈ 73.1 µM); against Yarrowia lipolytica, 16 µg/mL (≈ 36.6 µM). The MIC90 in the assay on Escherichia coli was 8 µg/mL (≈ 18.3 µM).
In the case of `CC(C)(C)[Si](C)(C)O[C@H]1CC[C@@]2(C)C(=CC[C@H]3[C@@H]4CC[C@H]([C@@](C)(O)c5ccccn5)[C@@]4(C)CC[C@@H]32)C1`, the MIC90 against Cryptococcus neoformans was 32 µg/mL (≈ 62.8 µM); in the assay with Candida albicans, 16 µg/mL (≈ 31.4 µM); against Staphylococcus aureus, 8 µg/mL (≈ 15.7 µM); with Fusarium oxysporum it was 8 µg/mL (≈ 15.7 µM); against Benjaminiella poitrasii it was 16 µg/mL (≈ 31.4 µM); against Yarrowia lipolytica it was 8 µg/mL (≈ 15.7 µM). For the same molecule, in the assay on Escherichia coli, the MIC90 is 16 µg/mL (≈ 31.4 µM).
With `CC(C)(C)[Si](C)(C)O[C@H]1CC[C@@]2(C)[C@@H](CC[C@@H]3[C@@H]2CC[C@@]2(C)[C@H]3CC[C@@H]2[C@@](C)(O)c2nccs2)C1`, the MIC90 with Cryptococcus neoformans was above 64 µg/mL; against Candida albicans, above 64 µg/mL; in the assay on Staphylococcus aureus, 16 µg/mL (≈ 30.9 µM); against Fusarium oxysporum, 64 µg/mL (≈ 124 µM); in the assay on Benjaminiella poitrasii it was 32 µg/mL (≈ 61.8 µM); with Yarrowia lipolytica it was 64 µg/mL (≈ 124 µM). The molecule further returned an MIC90 in the assay with Escherichia coli of 16 µg/mL (≈ 30.9 µM).
On to `CC(=O)O[C@H]1CC[C@@]2(C)[C@@H](CC[C@@H]3[C@@H]2CC[C@@]2(C)[C@H]3CC[C@@H]2[C@@](C)(O)c2ccccn2)C1`, for which the MIC90 in the assay on Cryptococcus neoformans is 64 µg/mL (≈ 146 µM); against Candida albicans, 16 µg/mL (≈ 36.4 µM); against Staphylococcus aureus it was 16 µg/mL (≈ 36.4 µM); against Fusarium oxysporum, above 64 µg/mL; in the assay with Benjaminiella poitrasii, 16 µg/mL (≈ 36.4 µM); with Yarrowia lipolytica, 64 µg/mL (≈ 146 µM). This molecule also had an MIC90 in the assay with Escherichia coli of 8 µg/mL (≈ 18.2 µM).
In the case of `OC(Cn1cncn1)(Cn1cncn1)c1ccc(F)cc1F` [FLUCONAZOLE], the MIC90 came to 32 µg/mL (≈ 104 µM) in the assay on Cryptococcus neoformans; 32 µg/mL (≈ 104 µM) with Candida albicans; 8 µg/mL (≈ 26.1 µM) against Fusarium oxysporum; 32 µg/mL (≈ 104 µM) in the assay with Benjaminiella poitrasii; 64 µg/mL (≈ 209 µM) in the assay on Yarrowia lipolytica.
